Laboratory results as given in patent publication US20030157072A1, “Nusap, a novel gene encoding a tissue-specific nuclear protein, useful as a diagnostic tool and therapeutic agent” (priority 2003, published 2003).

Legend:
[1] = tested on: mouse osteoblastic MC3T3-E1 cells; assay: [3H]-thymidine incorporation, proliferation of MC3T3-E1 cells; type: cell-based; details: varying doses, 24 and 48 h, versus vehicle
Description: (a) The proliferation of MC3T3-E1 cells was analyzed after treatment for 24 and 48 h with varying doses of 1,25(OH)2D3 by monitoring [^3H]-thymidine incorporation. Data represent mean±SD of six replicates of a representative experiment. Values of vehicle (ethanol) treated cells were taken as 100%. (*P<0.001; versus vehicle, t test) All culture reagents, unless otherwise mentioned, were obtained from GIBCO BRL (Life Technologies, Grand Island, N.Y.). Murine osteoblast-like MC3T3-E1 cells (Sudo et al. (1983). J. Cell Biol. 96:191-198) were purchased from Riken Cell Bank (H. Kodama, Japan), and maintained in αMEM supplemented with 10% heat-inactivated FCS and penicillin-streptomycin (100 U/ml and […], respectively). Sub-confluent MC3T3-E1 cell cultures are defined to be in the proliferation state, while confluent and mineralising cells have entered the differentiation stage. COS-1 and NIH3T3 cells (American Type Culture Collection, Manassas, Va.) were cultured respectively in Dulbecco's modified eagle medium (hereinafter DME) and DME-F12, plus 10% heat-inactivated FCS. For NIH3T3 cells, the medium was supplemented with glutamax (2 mM) and glucose (4.5 g/l). Cultures were grown at 37° C. in a humidified atmosphere containing 5% CO2 in air. […] Significant effects were already observed after 24 hours and this inhibition became more pronounced with increasing time. […]

[2] = tested on: nusap gene expression; assay: Northern analysis of nusap gene expression in MC3T3-E1 cells; type: cell-based, mouse
Description: FIG. 2 represents a Northern blot analysis showing nusap gene expression in sub-confluent cultures of MC3T3-E1 cells after treatment with vehicle or 1,25(OH)2D3 (10^−8 M) for 24 hours. The size (kb) of the three transcripts is indicated.
(§1) Northern blot analysis of nusap expression in hydroxyurea treated (1 mM) MC3T3-E1 cells. Cells were harvested at the indicated time points (minutes) after treatment. The different cell cycle phases were assigned based on the RNA levels of histone H4, a S-phase marker. The blots were hybridized with the following cDNA probes: human histone H4, pFO002; and a 0.8 kb NuSAP BglII/AspI restriction fragment. The 18S cDNA probe was used as a control to assess equal loading.
(§2) Growth arrest of MC3T3-E1 cells by serum starvation was accomplished by changing complete medium (10% FCS) to medium containing 0.1% FCS in subconfluent cultures. The quiescent cells were released from growth arrest by adding complete medium (10% FCS), whereafter cells were harvested at the indicated time points.
(§3) Total cellular RNA was extracted from cell cultures using TriZol LS. Foetal mice and soft tissues from adult mice (C57BL/6; 8 wk old) were directly homogenized in TriZol (GIBCO BRL), while femurs and tibias were ground to a fine powder prior to homogenization, followed by total cellular RNA extraction. […]

[3] = tested on: DNA synthesis (BrdUrd incorporation); assay: BrdUrd immunostaining in transfected COS-1 cells; type: cell-based; details: 20 μg/ml for several hours
Description: […] […] C is the merger of A and B. In some cells, BrdUrd incorporation is distinctly aggregated (E), and these sites overlap with NuSAP-GFP (D) and F (which is the merger of D and E).
Alternatively, cells were fixed and permeabilized in 0.4% glutaraldehyde/0.5% Triton X100/PBS for 15 minutes at room temperature. After incubation in 0.5 mg NaBH4/ml PBS (10 minutes), and blocking in 5% BSA/PBS (10 minutes), cells were incubated with primary antibodies for 1 h. Cells were washed and after incubation with 50% normal serum (Dako) (10 minutes), cells were incubated with secondary antibodies conjugated to Alexa-488 or -546 dye (Molecular Probes) (1 hour) and finally mounted using Dako mounting medium. Antibodies and normal serum were diluted in 0.5% Tween20/PBS. Analysis was done on a Nikon inverted microscope Diaphot 300 (Plan Apo 60/1.40 oil) connected to a Bio-Rad MRC1024 confocal microscope and images were captured by LaserSharp (version 3.2) and processed using Adobe Photoshop 5.5 (Adobe Systems Inc., San Jose Calif.). The images showing a-tubulin localization were taken using a Leitz DM microscope and were recorded using a cooled charge-coupled device camera (Photometrics Inc., Tucson, Ariz.) and IP-Lab software. […]

[4] = tested on: histone H4 gene expression; assay: Northern analysis of histone H4 RNA levels in MC3T3-E1 cells; type: cell-based, mouse; details: 1 mM, within 45 minutes of treatment
Description: as §1, §2, §3

[5] = tested on: microtubules (α-tubulin) / GFP-tagged NuSAP; assay: Immunofluorescence localization of GFP-tagged NuSAP in transfected COS-1 cells; details: for distribution of NuSAP in the nucleoli during interphase: COS-1 cells in interphase; for distribution of NuSAP and α-tubulin in mitotic cells: mitotic COS-1 cells, nocodazole 10 μM for 1 hour, taxol 5 μM for 1 hour

SMILES: C=C1/C(=C\C=C2/CCC[C@]3(C)[C@@H]([C@H](C)CCCC(C)(C)O)CC[C@@H]23)C[C@@H](O)C[C@@H]1O [1α,25(OH)2D3, 1α,25-dihydroxyvitamin D3]
- proliferation measured by [3H]-thymidine incorporation [1]: inhibited the proliferation of these cells
- nusap gene expression (Northern analysis) ([2]; sub-confluent MC3T3-E1 cells, 10^-8 M for 24 hours versus vehicle): inhibition of nusap gene expression

SMILES: C[C@@]1(CO)[C@H](O)CC[C@@]2(C)[C@H]1CC[C@H]1C[C@@H]3C[C@@]12CC[C@]3(O)CO [aphidicolin]
- immunostaining for BrdUrd [3]: loss of immunostaining for BrdUrd

SMILES: NC(=O)NO [hydroxyurea]
- histone H4 RNA levels [4]: undetectable
- nusap gene expression (RNA level) ([2]; MC3T3-E1 cells, 1 mM, within 45 minutes of treatment): markedly down-regulated

SMILES: COC(=O)Nc1nc2ccc(C(=O)c3cccs3)cc2[nH]1 [nocodazole]
- distribution of NuSAP in the nucleoli during interphase [5]: Neither nocodazole nor taxol treatment affected
- distribution of NuSAP and α-tubulin in mitotic cells [5]: NuSAP and α-tubulin redistributed throughout the cell

SMILES: CC(=O)O[C@H]1C(=O)[C@@]2(C)[C@H]([C@H](OC(=O)c3ccccc3)[C@]3(O)C[C@H](OC(=O)[C@H](O)[C@@H](NC(=O)c4ccccc4)c4ccccc4)C(C)=C1C3(C)C)[C@]1(OC(C)=O)CO[C@@H]1C[C@@H]2O [taxol]
- distribution of NuSAP in the nucleoli during interphase [5]: Neither nocodazole nor taxol treatment affected
- distribution of NuSAP and α-tubulin in mitotic cells [5]: resulted in NuSAPs translocation to these structures
